Test results from patent EP0590919A1, “Therapeutic agents for parkinson's disease” (KYOWA HAKKO KOGYO CO., LTD., priority 1992, dated 1994).
Like-named read-outs stand apart in the source and are kept apart here.

Columns and labels:
A₁ receptor = biological target: T1, A₁ receptor (Cavia porcellus, UniProt P47745); assay: Adenosine A₁ receptor binding test (³H-CHA binding); set-up: species or system guinea pig; settings: for inhibition at 100 µM: 10⁻⁴M; for inhibition at 100 µM / inhibition at 10 µM: guinea pig cerebrum; for inhibition at 10 µM: 10⁻⁵M; for Ki: Cheng-Prusoff's equation
T1 construct: from tissue; host or cells: guinea pig cerebrum membrane preparation
T1 sequence (P47745 1-326): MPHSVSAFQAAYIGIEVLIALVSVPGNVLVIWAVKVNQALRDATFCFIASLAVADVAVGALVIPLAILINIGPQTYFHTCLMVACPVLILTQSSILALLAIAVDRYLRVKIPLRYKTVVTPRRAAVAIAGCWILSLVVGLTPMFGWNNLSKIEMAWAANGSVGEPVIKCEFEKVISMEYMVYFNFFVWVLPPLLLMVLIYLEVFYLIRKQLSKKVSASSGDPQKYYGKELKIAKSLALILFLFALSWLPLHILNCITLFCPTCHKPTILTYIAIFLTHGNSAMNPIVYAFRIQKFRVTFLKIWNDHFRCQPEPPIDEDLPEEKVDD
Description: Cerebrum of a guinea pig was suspended in ice-cooled 50 mM Tris hydroxymethyl aminomethane hydrochloride (Tris HCl) buffer (pH 7.7) by using Polytron homogenizer (manufactured by […] Co.). […] The suspension was centrifuged under the same conditions, and the final precipitate was suspended once again in 50 mM Tris HCl buffer to give a tissue concentration of 100 mg (wet weight)/ml. The tissue suspension was incubated at 37°C for 30 minutes in the presence of 0.02 unit/mg tissue of adenosine deaminase (manufactured by Sigma Co.). The tissue suspension was then centrifuged (50,000 x g, 10 minutes), and 50 mM Tris HCl buffer was added to the precipitate to adjust the concentration of tissue to 10 mg (wet weight)/ml. […] The mixture solution was allowed to stand at 25°C for 90 minutes and then rapidly filtered by suction through a glass fiber filter (GF/C manufactured by Whatman Co.). […] The radioactivity on the filter was determined with a liquid scintillation counter (manufactured by Packard Instrument Co.). […] The inhibition constant (Ki value) shown in the table was calculated by the Cheng-Prusoff's equation.

A₂ receptor = biological target: T2, A₂ receptor (Rattus norvegicus, UniProt P30543); assay: Adenosine A₂ receptor binding test (³H-NECA binding); settings: for inhibition at 100 µM / inhibition at 10 µM / inhibition at 1 µM / inhibition at 0.1 µM: read-out: Inhibition (%) A₂ Receptor; for Ratio (A₁/A₂): ratio of Ki values A₁/A₂
T2 construct: from tissue; host or cells: rat corpus striatum membrane preparation
T2 sequence (P30543 whole entry): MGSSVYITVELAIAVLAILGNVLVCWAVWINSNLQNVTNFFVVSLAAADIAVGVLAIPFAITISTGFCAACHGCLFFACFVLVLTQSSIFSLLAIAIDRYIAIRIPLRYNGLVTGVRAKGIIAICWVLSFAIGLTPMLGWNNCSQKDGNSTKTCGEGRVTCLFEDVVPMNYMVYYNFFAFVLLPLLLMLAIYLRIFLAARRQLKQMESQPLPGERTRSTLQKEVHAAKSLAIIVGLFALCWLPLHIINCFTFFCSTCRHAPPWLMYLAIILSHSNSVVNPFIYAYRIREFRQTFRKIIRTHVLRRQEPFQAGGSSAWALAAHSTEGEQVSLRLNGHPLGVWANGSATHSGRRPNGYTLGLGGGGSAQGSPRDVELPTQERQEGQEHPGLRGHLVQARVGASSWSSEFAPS

dd-strain male mice = assay: Acute toxicity test (minimum lethal dose, oral); format: in vivo; settings: oral administration, three mice per group, mortality seven days after administration
Description: Test compounds were orally administered to groups of dd-strain male mice weighing 20 ± 1 g, each group consisting of three mice. Seven days after the administration, minimum lethal dose (MLD) of each compound was determined by observing the mortality.

[1] = test system: Haloperidol-Induced Catalepsy; assay: Effect on haloperidol-induced catalepsy; format: in vivo, mice; settings: for Number of the Animals Showing Remission: of five mice, catalepsy score not more than 4 points; for Number of the Animals Showing Remission / Remission Rate (%) / Total Score: 10 mg/kg orally; for Remission Rate (%): rate of decrease in total score based on control group; for Total Score: total catalepsy score of five mice (25 points at the full), haloperidol 1.0 mg/kg i.p.; for ED50: Mus musculus, 1 h, ten mice at each dose, effective = catalepsy score 3 or less, Probit analysis, oral, read-out: ED₅₀
Description: Haloperidol (Janssen Pharmaceutica) suspended in 0.3% CMC was intraperitoneally administered to each mouse at a dose of 1.0 mg/kg. Test compounds were suspended in 0.3% CMC or in injectable distilled water (Otsuka Pharmaceutical Co., Ltd.) containing Tween 80. L-DOPA (Kyowa Hakko Kogyo Co., Ltd.) and benserazide hydrochloride (Kyowa Hakko Kogyo Co., Ltd.) were suspended in 0.3% CMC. One hour after the haloperidol administration, the test compound suspensions and the control suspension [injectable distilled water (Otsuka Pharmaceutical Co., Ltd.) containing Tween 80] containing no test compound were orally administered to separate groups of the mice (0.1 ml per 10 g of body weight). One hour after the administration of the test compound, the forelimbs of each mouse and subsequently the hindlimbs of the same mouse were placed on a 4.5 cm-high, 1.0 cm-wide bar and catalepsy was estimated. […] The catalepsy score and the standard of judgment are shown below. […] The number of the animals showing remission against catalepsy is the number of the mice for which the catalepsy score was not more than 4 points. […] The ED₅₀ values were calculated by Probit analysis.

Structure (SMILES) | inhibition at 100 µM (A₁ receptor) [%] | inhibition at 10 µM (A₁ receptor) [%] | Ki (A₁ receptor) [nM] | inhibition at 100 µM (A₂ receptor; 10⁻⁴M, ³H-NECA binding, rat corpus striatum) [%] | inhibition at 10 µM (A₂ receptor; 10⁻⁵M, ³H-NECA binding, rat corpus striatum) [%] | inhibition at 1 µM (A₂ receptor; 10⁻⁶M, ³H-NECA binding, rat corpus striatum) [%] | inhibition at 0.1 µM (A₂ receptor; 10⁻⁷M, ³H-NECA binding, rat corpus striatum) [%] | MLD (dd-strain male mice) [mg/kg] | inhibition at 0.1 µM (A₂ receptor) [%] | inhibition at 1 µM (A₂ receptor) [%] | inhibition at 10 µM (A₂ receptor) [%] | inhibition at 100 µM (A₂ receptor) [%] | Ki (A₂ receptor; ³H-NECA binding) [nM] | Ratio (A₁/A₂) (A₂ receptor) | Number of the Animals Showing Remission [1] | Remission Rate (%) [1] [%] | Total Score [1] | ED50 [1] [mg/kg]
Cn1c(=O)c2[nH]c(/C=C/c3ccc4c(c3)OCO4)nc2n(C)c1=O [Compound 23, (E)-8-(3,4-Methylenedioxystyryl)theophylline] | 38 | 32 | > 100000 | 81 | 90 | 60 | 38 | > 300 |  |  |  |  |  |  |  |  |  | 
CCn1c(=O)c2[nH]c(/C=C/c3ccc(OC)c(OC)c3)nc2n(CC)c1=O [Compound 1, (E)-8-(3,4-Dimethoxystyryl)-1,3-diethylxanthine] | 86 | 84 |  |  |  |  |  | > 300 | 53 | 86 | 98 | 100 | 23 |  |  |  |  | 
CCn1c(=O)c2[nH]c(/C=C/c3ccc4c(c3)OCCO4)nc2n(CC)c1=O [Compound 17, (E)-8-[2-(1,4-Benzodioxan-6-yl)vinyl]-1,3-diethylxanthine] | 31 | 23 | > 100000 |  |  |  |  | > 100 | 70 | 69 | 80 | 80 | 6.3 | > 16,000 |  |  |  | 
COc1ccc(/C=C/c2nc3c(c(=O)n(C)c(=O)n3C)n2C)c(C)c1C [Compound 22, (E)-8-(4-Methoxy-2,3-dimethylstyryl)caffeine] | 1 | 1 | > 100000 |  |  |  |  | > 100 | 78 | 85 | 78 | 81 | 3 | > 33,000 | 3 | 20 | 20 | 
CCn1c(=O)c2[nH]c(/C=C/c3ccc(OC)c(C)c3OC)nc2n(CC)c1=O [Compound 13, (E)-8-(2,4-Dimethoxy-3-methylstyryl)-1,3-diethylxanthine] | 71 | 59 |  |  |  |  |  | > 300 | 77 | 84 | 88 | 95 | 9.5 |  |  |  |  | 
COc1ccc(/C=C/c2nc3c([nH]2)c(=O)n(C)c(=O)n3C)c(C)c1C [Compound 21, (E)-8-(4-Methoxy-2,3-dimethylstyryl)theophylline] | 40 | 36 | > 100000 |  |  |  |  | > 100 | 56 | 68 | 83 | 79 | 22 |  | 4 | 24 | 19 | 
CCn1c(=O)c2c(nc(/C=C/c3ccc4c(c3)OCO4)n2C)n(CC)c1=O [Compound 16, (E)-1,3-Diethyl-7-methyl-8-(3,4-methylenedioxystyryl)xanthine] | 72 | 53 |  |  |  |  |  | > 300 | 80 | 96 | 88 | 93 | 6.1 |  | 5 | 84 | 4 | 0.76
CCn1c(=O)c2[nH]c(/C=C/c3ccc(OC)c(C)c3C)nc2n(CC)c1=O [Compound 9, (E)-1,3-Diethyl-8-(4-methoxy-2,3-dimethylstyryl)xanthine] | 26 | 14 | > 100000 |  |  |  |  | > 300 | 79 | 84 | 73 | 86 | 3.1 | > 32,000 |  |  |  | 
CCn1c(=O)c2c(nc(/C=C/c3cccc(OC)c3OC)n2C)n(CC)c1=O [Compound 4, (E)-8-(2,3-Dimethoxystyryl)-1,3-diethyl-7-methylxanthine] | 70 | 55 |  |  |  |  |  | > 300 | 57 | 84 | 88 | 90 | 33 |  |  |  |  | 
Cn1c(=O)c2c(nc(/C=C/c3ccc4c(c3)OCO4)n2C)n(C)c1=O [Compound 24, (E)-8-(3,4-Methylenedioxystyryl)caffeine] | -25 | -4 | > 100000 |  |  |  |  | > 300 | 62 | 57 | 75 | 85 | 26 | > 3,800 |  |  |  | 
CCn1c(=O)c2[nH]c(/C=C/c3ccc4c(c3)OCO4)nc2n(CC)c1=O [Compound 15, (E)-1,3-Diethyl-8-(3,4-methylenedioxystyryl)xanthine] | 35 | 25 | > 100000 |  |  |  |  | > 300 | 53 | 64 | 70 | 70 | 15 |  |  |  |  | 
CCn1c(=O)c2[nH]c(/C=C/c3ccc(OC)c(OC)c3OC)nc2n(CC)c1=O [Compound 7, (E)-1,3-Diethyl-8-(2,3,4-trimethoxystyryl)xanthine] | 49 | 34 | > 10000 |  |  |  |  | > 300 | 65 | 88 | 75 | 83 | 15 | > 670 |  |  |  | 
CCn1c(=O)c2c(nc(/C=C/c3ccc4c(c3)OCCO4)n2C)n(CC)c1=O [Compound 18, (E)-8-[2-(1,4-Benzodioxan-6-yl)vinyl]-1,3-diethyl-7-methylxanthine] | 66 | 56 |  |  |  |  |  | > 300 | 84 | 90 | 104 | 98 | 1.5 |  | 5 | 84 | 4 | 1.9
